Data on 2 substances can be found in patent US7211434B2, “Primitive neural stem cells and method for differentiation of stem cells to neural cells” (priority 2000, dated 2007).

Format in all cases: cell-based, mouse
One assay concerns ES cells. Description: Primary neural sphere colony formation from ES cells in serum-free low-density culture, 7 days. Particulars: for primary colony formation, factor alone: ES cells at relatively low cell densities, serum-free, 7 days in vitro. The procedure: For passaging ES cells, cultures were disaggregated with 0.05% trypsin dissolved in Tris-saline/EDTA for 5–10 minutes, mechanically dissociated, centrifuged and resuspended in culture medium.
Passaged ES cells were washed (2 times), centrifuged and resuspended in chemically defined serum-free media (Reynolds et al., 1992; Reynolds & Weiss, 1996) composed of a 1:1 mixture of Dulbecco's modified Eagle's medium (DMEM GIBCO) and F-12 nutrient (GIBCO) including 0.6% glucose (Sigma), 2 mM glutamine (GIBCO), 3 mM sodium bicarbonate (Sigma), and 5 mM HEPFS buffer (Sigma). A defined hormone and salt mixture (Sigma) that included insulin (25 (g/ml), transferrin (100 (g/ml), progestrone (20 nM), putrescine (60 (M), and selenium chloride (30 nM) was used instead of serum. ES cells were plated at various cell densities in 24-well culture plates (Nunclon) in the presence of either LIF (1000 U/ml), LIF+FGF2 (10 ng/ml; Upstate Biotech or Sigma) and 2 (g/ml heparin (Sigma), or in the absence of any exogenous growth factors. For short term (4–24 hours) neural differentiation, ES cells were plated in identical culture conditions in 24-well culture plates (Nunclon) that were precoated with poly-L-ornithine (15 μg/ml, Gibco).
Limiting dilution analysis was performed as previously described (Bellows and Aubin, 1989; Tropepe et al., 1999). ES cells were plated in 24-well plates containing LIF (1000 U/ml). Cell numbers were adjusted to give a starting concentration of 5000 cells/ml from which serial dilutions were made. Final cell dilutions ranged from 1000 cells per well to 1 cell per well in 0.5 ml aliquots. Cultures were left undisturbed for 7 days after which time the fraction of wells not containing sphere colonies for each cell plating density was calculated and those points were plotted against the number of cells plated per well. The number of cells required to form one sphere colony, which reflected the proportion of neural stem cells in the entire population, was then determined from the point at which the regression line crossed the 0.37 level (37%). […]

Assay [1] has as its system ES-derived neural sphere colony cells. Kind of assay: Subcloning of single ES-derived sphere colonies (secondary colony formation, self-renewal). Particulars: subcloned single primary colonies; factor alone. The procedure: Self-renewal of primary colony-formin) ES cells was assessed as previously described (Tropepe et al., 1999). Single sphere colonies were isolated, mechanically dissociated into a single cell suspension in 0.2 ml of serum-free media containing various combinations of LIF (1000 U/ml), […] (10 ng/ml), heparin (2 (g/ml), EGF (20 ng/ml; Upstate Biotech) or B27 supplement (1X) and cultured in 96-well (Nunclon) plates. Secondary sphere colonies were quantified after 7–10 days. A similar procedure was used for repeated passaging experiments. Cell viability after a 7-day culture period (sphere colony assay) or after 4–24 hours (short-term ES differentiation assay) was determined using trypan blue exclusion (1:2 dilution of 0.4% trypan blue; Gibco).

Assay [2] has as its system neural stem cells from the E9.5 forebrain. Kind of assay: Sphere colony formation from E9.5 forebrain neural stem cells. The procedure:
Pregnant CD1 mice (Charles River, Quebec) of gestational age (9.5 (E9.5) or E11.5 (see below) were killed via cervical dislocation and embryos were removed as previously described (Chiasson et al., 1999; Tropepe et al., 1999). Dissected germinal zone from the E9.5 telencephalon was transferred to serum-free media and mechanically dissociated into a cell suspension with a fire-polished Pasteur pipette. Cell viability was assessed using trypan blue. Cells were plated at 10 cells/μl in 24-well (0.5 ml/well) uncoated plates (Nunclon) in serum-free media containing either FGF2 (10 ng/ml)+heparin (2 (g/ml) or FGF2+heparin+LIF (1000 U/ml). Self-renewal of neural stem cells that generated primary sphere colonies (selecting mainly floating colonies after 7 days in vitro) were routinely subcloned by mechanically dissociating a single colony in 0.2 ml of serum-free media, in identical growth factor conditions as the primary culture, and plated in uncoated 96-well (0.2 ml/well) plates (Nunclon). The number of new secondary colonies was quantified after a further 6–7 days in vitro. Neural stem cell colonies from the adult forebrain subependyma were isolated as previously described (Chiasson et al., 1999) and cultured as above.

Turning to “EGF: growth factor, 20 ng/ml; Upstate Biotech (NSDSECPLSHDGYCLHDGVCMYIEALDKYACNCVVGYIGERCQYRDLKWWELR; Epidermal growth factor; UniProt P01133 971-1023, looked up)”, the “primary colony formation, factor alone” value in the assay with ES cells is reported as “no cell colonies were generated”. In addition, the “secondary neural stem cell colony formation” value in assay [1] is “not observed”.

Regarding “LIF: leukemia inhibitory factor, cytokine added at 1000 U/ml”, the “primary colony formation, factor alone” value in the assay on ES cells is “floating sphere-like colonies were generated”. For the same substance, the “estimated frequency of sphere colony forming cells” value in the assay on ES cells (limiting dilution assay in the presence of LIF (1000 U/ml)) was roughly 0.2%. The “secondary neural stem cell colony formation” value in assay [1] is reported as “not sufficient for secondary colony formation”. For the same substance, the “E9.5 neural stem cell proliferation, LIF alone” value in assay [2] (LIF alone) is on record as “not sufficient for E9.5 neural stem cell proliferation”. In addition, the “numbers of neural stem cells forming sphere colonies, with FGF2” value in assay [2] (LIF in the presence of FGF2, compared to FGF2 alone) is reported as “can enhance the numbers of FGF-responsive neural stem cells”.
